Assay [1] has as its target T1, IKKε (Homo sapiens, UniProt Q14164).
T1 sequence (Q14164 1-716): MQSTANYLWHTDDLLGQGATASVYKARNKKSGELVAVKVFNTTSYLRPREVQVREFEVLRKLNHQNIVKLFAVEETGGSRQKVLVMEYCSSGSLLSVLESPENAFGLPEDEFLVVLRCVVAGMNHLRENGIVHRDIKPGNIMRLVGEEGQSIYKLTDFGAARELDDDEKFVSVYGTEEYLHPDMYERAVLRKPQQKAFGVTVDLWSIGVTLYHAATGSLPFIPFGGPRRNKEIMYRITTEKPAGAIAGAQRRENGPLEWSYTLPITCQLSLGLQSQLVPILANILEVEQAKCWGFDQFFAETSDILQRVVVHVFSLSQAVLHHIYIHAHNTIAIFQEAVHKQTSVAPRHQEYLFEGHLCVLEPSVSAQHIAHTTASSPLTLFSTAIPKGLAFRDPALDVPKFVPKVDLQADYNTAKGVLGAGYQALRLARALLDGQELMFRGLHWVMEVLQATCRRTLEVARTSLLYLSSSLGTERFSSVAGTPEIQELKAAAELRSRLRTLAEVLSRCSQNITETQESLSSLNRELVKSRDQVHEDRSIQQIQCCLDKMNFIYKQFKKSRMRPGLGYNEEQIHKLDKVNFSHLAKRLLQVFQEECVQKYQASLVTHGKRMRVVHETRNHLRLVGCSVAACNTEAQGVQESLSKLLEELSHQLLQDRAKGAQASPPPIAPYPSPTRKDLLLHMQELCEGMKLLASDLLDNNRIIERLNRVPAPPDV
In words: IKKe Biochemical Assay. The conditions noted are these: read-out: IKKε IC50. Summed up: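 Recombinant IKKε and substrate were incubated with compound (10-point 1:4 series, top 30 uM final, 1% DMSO) for 90 min at 25° C, then stopped. Substrate-to-product conversion was read by LabChip microfluidic mobility shift; 10 uM staurosporine served as full-inhibition wells.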

Assay [2] addresses T2, TBK1 (Homo sapiens, UniProt Q9UHD2).
T2 sequence (Q9UHD2 1-729): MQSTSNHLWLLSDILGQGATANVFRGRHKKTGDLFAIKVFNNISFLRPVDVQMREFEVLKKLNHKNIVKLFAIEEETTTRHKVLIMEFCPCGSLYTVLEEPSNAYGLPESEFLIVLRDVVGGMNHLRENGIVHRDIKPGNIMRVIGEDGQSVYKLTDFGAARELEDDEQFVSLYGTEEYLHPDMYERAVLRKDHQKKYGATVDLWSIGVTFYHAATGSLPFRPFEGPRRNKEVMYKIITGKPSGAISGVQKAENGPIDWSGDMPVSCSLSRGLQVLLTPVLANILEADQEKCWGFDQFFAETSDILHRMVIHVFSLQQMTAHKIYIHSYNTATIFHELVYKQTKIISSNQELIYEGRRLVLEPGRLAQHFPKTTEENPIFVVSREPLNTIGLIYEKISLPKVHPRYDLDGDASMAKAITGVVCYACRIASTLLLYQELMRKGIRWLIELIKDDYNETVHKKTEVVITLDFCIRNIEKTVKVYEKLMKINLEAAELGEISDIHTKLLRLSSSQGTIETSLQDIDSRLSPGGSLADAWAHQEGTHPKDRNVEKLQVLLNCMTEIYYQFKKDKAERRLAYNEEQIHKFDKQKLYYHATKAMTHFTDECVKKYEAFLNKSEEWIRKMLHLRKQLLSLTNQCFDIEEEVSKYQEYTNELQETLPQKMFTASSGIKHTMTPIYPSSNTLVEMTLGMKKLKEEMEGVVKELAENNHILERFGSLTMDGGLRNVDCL
In words: TBK Biochemical Assay. The following applies: read-out: TBK1 IC50. Summed up:
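TBK1 enzyme and substrate incubated with compounds (10-point 1:4 dilution, top 30 uM final, 1% DMSO) for 90 min at 25° C, then stopped. Substrate/product peaks read by microfluidic mobility-shift (Caliper LabChip); 10 uM staurosporine as full-inhibition control.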

Our source for the IC50 values is patent publication US10428080B2, “TBK/IKK inhibitor compounds and uses thereof” (Merck Patent GmbH, priority 2015, dated 2019).

Where a name gives a salt, the structure may show the parent alone. Some results are limits rather than exact numbers.

Turning to `COc1cc(C(=O)N(C)C)ccc1-c1cc2nccc(-c3cc(F)c(N(C)C4CCOCC4)c(C#N)c3)c2o1` [Compound 237, 4-(7-(3-cyano-5-fluoro-4-(methyl(tetrahydro-2H-pyran-4-yl)amino)phenyl)furo[3,2-b]pyridin-2-yl)-3-methoxy-N,N-dimethylbenzamide], the IC50 in assay [1] and in assay [2] was under 100 nM each time.

`CN(C)C(=O)c1ccc(-c2cc3nccc(-c4ccc(OC5CCOCC5)c(C#N)c4)c3o2)c(F)c1` [Compound 238, 4-(7-(3-cyano-4-(tetrahydro-2H-pyran-4-yloxy)phenyl)furo[3,2-b]pyridin-2-yl)-3-fluoro-N,N-dimethylbenzamide]: the 50% inhibitory concentration (IC50) in assay [1] and in assay [2] was under 100 nM throughout.

Take `CN(C)C(=O)c1ccc(-c2cc3nccc(-c4ccc(OC5CCOCC5)c(C#N)c4)c3o2)c(Cl)c1` [Compound 239, 3-chloro-4-(7-(3-cyano-4-(tetrahydro-2H-pyran-4-yloxy)phenyl)furo[3,2-b]pyridin-2-yl)-N,N-dimethylbenzamide]: the IC50 in assay [1] and in assay [2] was under 100 nM throughout.

Turning to `CN(C)C(=O)c1ccc(-c2cc3nccc(-c4ccc(OC5CCOCC5)c(C#N)c4)c3o2)c(C(F)(F)F)c1` [Compound 240, 4-(7-(3-cyano-4-(tetrahydro-2H-pyran-4-yloxy)phenyl)furo[3,2-b]pyridin-2-yl)-N,N-dimethyl-3-(trifluoromethyl)benzamide], the IC50 in assay [1] and in assay [2] was 100 to 1000 nM each time.

Consider `CN(C)C(=O)c1ccc(-c2cc3nccc(-c4ccc(OC5CCOCC5)c(C#N)c4)c3o2)c(OC(F)(F)F)c1` [Compound 241, 4-(7-(3-cyano-4-(tetrahydro-2H-pyran-4-yloxy)phenyl)furo[3,2-b]pyridin-2-yl)-N,N-dimethyl-3-(trifluoromethoxy)benzamide], for which the IC50 in assay [1] and in assay [2] was under 100 nM each time.

`CN(C)C(=O)c1ccc(-c2cc3nccc(-c4ccc(OC5CCOCC5)c(C#N)c4)c3o2)nn1` [Compound 242, 6-(7-(3-cyano-4-(tetrahydro-2H-pyran-4-yloxy)phenyl)furo[3,2-b]pyridin-2-yl)-N,N-dimethylpyridazine-3-carboxamide hydrochloride]: the IC50 in assay [1] and in assay [2] was 100 to 1000 nM in each case.

Consider `CN(C)C(=O)c1ccc(-c2cc3nccc(-c4ccc(OC5CCOCC5)c(C#N)c4)c3o2)nc1` [Compound 243, 6-(7-(3-cyano-4-(tetrahydro-2H-pyran-4-yloxy)phenyl)furo[3,2-b]pyridin-2-yl)-N,N-dimethylnicotinamide], for which the IC50 in assay [1] and in assay [2] was under 100 nM each time.

In the case of `CN(C)C(=O)c1ccc(-c2cc3nccc(-c4ccc(NC5CCOCC5)c(C#N)c4)c3o2)nc1` [Compound 244, 6-(7-(3-cyano-4-(tetrahydro-2H-pyran-4-ylamino)phenyl)furo[3,2-b]pyridin-2-yl)-N,N-dimethylnicotinamide], the IC50 in assay [1] and in assay [2] was 100 to 1000 nM each time.

For the compound `CN(C)C(=O)c1ccc(-c2cc3nccc(-c4cc(F)c(OC5CCOCC5)c(C#N)c4)c3o2)nc1` [Compound 245, 6-(7-(3-cyano-5-fluoro-4-(tetrahydro-2H-pyran-4-yloxy)phenyl)furo[3,2-b]pyridin-2-yl)-N,N-dimethylnicotinamide hydrochloride], the IC50 in assay [1] and in assay [2] was 100 to 1000 nM in each case.

As for `CN(C)C(=O)c1ccc(-c2cc3nccc(-c4cc(F)c(NC5CCOCC5)c(C#N)c4)c3o2)nc1` [Compound 246], the IC50 in assay [1] and in assay [2] was 100 to 1000 nM each time.

Take `CN(C)C(=O)c1cnc(-c2cc3nccc(-c4cc(F)c(OC5CCOCC5)c(C#N)c4)c3o2)c(F)c1` [Compound 247, 6-(7-(3-cyano-5-fluoro-4-(tetrahydro-2H-pyran-4-yloxy)phenyl)furo[3,2-b]pyridin-2-yl)-5-fluoro-N,N-dimethylnicotinamide]: the concentration for half-maximal inhibition (IC50) in assay [1] and in assay [2] was 100 to 1000 nM throughout.

As to `CN(C)C(=O)c1cnc(-c2cc3nccc(-c4ccc(NC5CCOCC5)c(C#N)c4)c3o2)c(F)c1` [Compound 249, 6-(7-(3-cyano-4-(tetrahydro-2H-pyran-4-ylamino)phenyl)furo[3,2-b]pyridin-2-yl)-5-fluoro-N,N-dimethylnicotinamide], the 50% inhibitory concentration (IC50) in assay [1] and in assay [2] was 100 to 1000 nM in each case.

On to `CN(C)C(=O)c1ccc(-c2cc3nccc(-c4ccc(NC5CCOCC5)c(C#N)c4)c3o2)c(F)c1` [Compound 250, 4-(7-(3-cyano-4-(tetrahydro-2H-pyran-4-ylamino)phenyl)furo[3,2-b]pyridin-2-yl)-3-fluoro-N,N-dimethylbenzamide], for which the IC50 in assay [1] and in assay [2] was 100 to 1000 nM in each case.

In the case of `COc1cc(C(=O)N(C)C)cc(F)c1-c1cc2nccc(-c3ccc(NC4CCOCC4)c(C#N)c3)c2o1` [Compound 255, 4-(7-(3-cyano-4-(tetrahydro-2H-pyran-4-ylamino)phenyl)furo[3,2-b]pyridin-2-yl)-3-fluoro-5-methoxy-N,N-dimethylbenzamide], the IC50 in assay [1] and in assay [2] was under 100 nM each time.

As to `CCN(CC)C(=O)c1ccc(-c2cc3nccc(-c4ccc(OC5CCOCC5)c(C#N)c4)c3o2)c(OC)c1` [Compound 256, 4-(7-(3-cyano-4-(tetrahydro-2H-pyran-4-yloxy)phenyl)furo[3,2-b]pyridin-2-yl)-N,N-diethyl-3-methoxybenzamide hydrochloride], the IC50 in assay [1] and in assay [2] was under 100 nM throughout.

On to `CCCN(C)C(=O)c1ccc(-c2cc3nccc(-c4ccc(OC5CCOCC5)c(C#N)c4)c3o2)c(OC)c1` [Compound 257, 4-(7-(3-cyano-4-(tetrahydro-2H-pyran-4-yloxy)phenyl)furo[3,2-b]pyridin-2-yl)-3-methoxy-N-methyl-N-propylbenzamide hydrochloride], for which the IC50 in assay [1] and in assay [2] was under 100 nM throughout.

On to `COc1cc(C(=O)N(C)CCCO)ccc1-c1cc2nccc(-c3ccc(OC4CCOCC4)c(C#N)c3)c2o1` [Compound 258, 4-(7-(3-cyano-4-(tetrahydro-2H-pyran-4-yloxy)phenyl)furo[3,2-b]pyridin-2-yl)-N-(3-hydroxypropyl)-3-methoxy-N-methylbenzamide hydrochloride], for which the IC50 in assay [1] and in assay [2] was under 100 nM throughout.

Regarding `CCN(CC)C(=O)c1ccc(-c2cc3nccc(-c4ccc(NC5CCOCC5)c(C#N)c4)c3o2)c(OC)c1` [Compound 259, 4-(7-(3-cyano-4-(tetrahydro-2H-pyran-4-ylamino)phenyl)furo[3,2-b]pyridin-2-yl)-N,N-diethyl-3-methoxybenzamide], the half-inhibitory concentration (IC50) in assay [1] and in assay [2] was under 100 nM each time.

`COc1cc(C(=O)N(C)CC(F)F)ccc1-c1cc2nccc(-c3ccc(OC4CCOCC4)c(C#N)c3)c2o1` [Compound 260]: the IC50 in assay [1] and in assay [2] was under 100 nM each time.

In the case of `COc1cc(C(=O)N(C)CCCO)ccc1-c1cc2nccc(-c3ccc(NC4CCOCC4)c(C#N)c3)c2o1` [Compound 261, 4-(7-(3-cyano-4-(tetrahydro-2H-pyran-4-ylamino)phenyl)furo[3,2-b]pyridin-2-yl)-N-(3-hydroxypropyl)-3-methoxy-N-methylbenzamide], the IC50 in assay [1] and in assay [2] was under 100 nM in each case.

In the case of `CCN(C)C(=O)c1ccc(-c2cc3nccc(-c4ccc(NC5CCOCC5)c(C#N)c4)c3o2)c(OC)c1` [Compound 262, 4-(7-(3-cyano-4-(tetrahydro-2H-pyran-4-ylamino)phenyl)furo[3,2-b]pyridin-2-yl)-N-ethyl-3-methoxy-N-methylbenzamide], the IC50 in assay [1] and in assay [2] was under 100 nM in each case.
